The values below come from patent US6375974B1 (Mitsui Takeda Chemicals, Inc., priority 1998, dated 2002).

For series [1] the following is noted: ethanol; cited from earlier work.
The nature of series [2]: dissolution of fine grains in water by slow stirring. The conditions noted are these: 15 g fine grains (80-mesh pass) in 10 l of water at 20° C., slowly stirred for 24 hours. Type of series: physicochemical. From the text:
Because of the low dissolution rate, fumaric acid cannot be completely dissolved but remains as fine grains giving a slurry in these conventional methods. […] When such an aqueous fumaric acid solution is employed in sterilizing meats, the remaining fumaric acid grains sometimes damage the meat tissue.

A further series concerns gram negative bacteria. Particulars: cited from earlier work.
The test system of series [3] is various bacteria such as E. coli 0-157. The conditions noted are these: at 1.0% and 1.5%; cited from earlier work.
The test system of series [4] is various gram negative bacteria. Particulars: cited from earlier work.
Another series concerns Escherichia coli O-157. Particulars: cited from earlier work.
The conditions of series [5]: cited from earlier work.

With `CCO` [ethanol], the “time after which a bactericidal effect was exerted” value in series [1] was 60 min.
Take `O=C(O)/C=C/C(=O)O` [fumaric acid]: in series [2], the “dissolution of fine grains” value is listed as “not completely dissolved”. In addition, the “growth of gram negative bacteria” value with gram negative bacteria was “inhibited the growth”. In addition, the “bactericidal effect compared with other organic acids” value in series [3] was “exceeding those of other organic acids”. The bactericidal effect entry was “potent bactericidal effect” in series [4] (gram negative bacteria (E. coli, salmonella, Shigella, etc.), short contact time) and “strong bactericidal effect” in the series on Escherichia coli O-157. Also, the antibacterial effect result in series [4] (within a short time, compared with other organic acids) was “strong antibacterial effect”.
In the case of `O=C([O-])/C=C/C(=O)O.[Na+]` [monosodium fumarate], the “concentration showing bactericidal effects” value in series [5] (aqueous solution) is listed as 0.8%. In addition, in series [5] (concentration of 0.6% or less), the bactericidal effects result is listed as “did not show bactericidal effects”.
